In patent US8883782B2, “Spiro-tetracyclic ring compounds as beta-secretase modulators and methods of use” (Amgen Inc., priority 2010, dated 2014):

How the values were obtained:
[1] = biological target: Beta Secretase enzyme (BACE) (Homo sapiens, UniProt P56817); assay: In vitro enzymatic BACE FRET (fluorescence resonance energy transfer) assay; assay type: biochemical; conditions: average IC50, enzyme assay; read-out: BACE 1 FRET assay
Procedure, shortened: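 Enzyme activity was measured at pH 4.2 (0.05 M acetate, 10% DMSO final, 100 uM genapol) by cleavage of a 50 nM quenched fluorogenic peptide. After one hour, Tris was added to neutralise the pH and fluorescence was recorded.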

[2] = test system: Aβ40 in conditioned medium of cells stably expressing Amyloid Precursor Protein (APP); assay: In vitro BACE cell-based assay (Aβ40 in conditioned medium, sandwich ELISA); conditions: Homo sapiens, HEK293, average IC50; read-out: HEK cell assay
Procedure, shortened: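 Step two: 10-point compound titration added, starting 100 μM or 10 μM, 0.1% DMSO. Step three: medium Aβ40 measured by ELISA, capture 3 h and detection 2 h at 4° C, TRF read.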

Chain of Beta Secretase enzyme (BACE) (P56817 46-501, species assumed): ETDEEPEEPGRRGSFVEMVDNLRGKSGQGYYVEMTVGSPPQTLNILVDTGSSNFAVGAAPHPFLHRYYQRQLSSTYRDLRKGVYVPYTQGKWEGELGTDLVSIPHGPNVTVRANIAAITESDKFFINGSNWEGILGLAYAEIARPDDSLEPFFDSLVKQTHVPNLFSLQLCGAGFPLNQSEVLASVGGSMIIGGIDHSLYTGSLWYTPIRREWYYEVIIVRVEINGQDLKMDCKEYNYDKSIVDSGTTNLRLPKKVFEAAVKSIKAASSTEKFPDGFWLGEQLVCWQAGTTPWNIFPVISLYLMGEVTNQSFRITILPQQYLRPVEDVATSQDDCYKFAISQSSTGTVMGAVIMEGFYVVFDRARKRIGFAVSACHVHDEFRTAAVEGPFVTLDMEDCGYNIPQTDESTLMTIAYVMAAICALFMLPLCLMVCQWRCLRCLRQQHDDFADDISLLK

NC1=N[C@@]2(CO1)c1cc(OCc3ccccc3Br)ccc1Oc1ncc(-c3cccnc3)cc12 [Example 978, (5S)-7-((2-bromobenzyl)oxy)-3-(3-pyridinyl)spiro[chromeno[2,3-b]pyridine-5,4′-[1,3]oxazol]-2′-amine]
IC50 [1]: 50.7 nM
IC50 [2]: 334 nM

NC1=N[C@@]2(CO1)c1cc(OCc3cccc(Br)c3)ccc1Oc1ncc(-c3cccnc3)cc12 [Example 979, (5S)-7-((3-bromobenzyl)oxy)-3-(3-pyridinyl)spiro[chromeno[2,3-b]pyridine-5,4′-[1,3]oxazol]-2′-amine]
IC50 [1]: 0.6 nM
IC50 [2]: 23 nM

NC1=N[C@@]2(CO1)c1cc(OCc3ccc(Br)cc3)ccc1Oc1ncc(-c3cccnc3)cc12 [Example 980, (5S)-7-((4-bromobenzyl)oxy)-3-(3-pyridinyl)spiro[chromeno[2,3-b]pyridine-5,4′-[1,3]oxazol]-2′-amine]
IC50 [1]: 45.6 nM
IC50 [2]: 336 nM

NC1=N[C@@]2(CO1)c1cc(OCCCc3ccccc3)ccc1Oc1ncc(-c3cccnc3)cc12 [Example 981, (5S)-7-(3-phenylpropoxy)-3-(3-pyridinyl)spiro[chromeno[2,3-b]pyridine-5,4′-[1,3]oxazol]-2′-amine]
IC50 [1]: 22.2 nM
IC50 [2]: 262 nM

NC1=N[C@@]2(CO1)c1cc(OCc3cccc(F)c3)ccc1Oc1ncc(-c3cccnc3)cc12 [Example 982, (5S)-7-((3-fluorobenzyl)oxy)-3-(3-pyridinyl)spiro[chromeno[2,3-b]pyridine-5,4′-[1,3]oxazol]-2′-amine]
IC50 [1]: 66.8 nM
IC50 [2]: 644 nM

COc1cccc(COc2ccc3c(c2)[C@@]2(COC(N)=N2)c2cc(-c4cccnc4)cnc2O3)c1 [Example 983, (5S)-7-((3-methoxybenzyl)oxy)-3-(3-pyridinyl)spiro[chromeno[2,3-b]pyridine-5,4′-[1,3]oxazol]-2′-amine]
IC50 [1]: 24.6 nM
IC50 [2]: 314 nM

N#Cc1cccc(COc2ccc3c(c2)[C@@]2(COC(N)=N2)c2cc(-c4cccnc4)cnc2O3)c1 [Example 984, 3-((((5S)-2′-amino-3-(3-pyridinyl)spiro[chromeno[2,3-b]pyridine-5,4′-[1,3]oxazol]-7-yl)oxy)methyl)benzonitrile]
IC50 [1]: 30.8 nM
IC50 [2]: 125 nM

NC1=N[C@@]2(CO1)c1cc(OCc3cccc(C(F)(F)F)c3)ccc1Oc1ncc(-c3cccnc3)cc12 [Example 985, (5S)-3-(3-pyridinyl)-7-((3-(trifluoromethyl)benzyl)oxy)spiro[chromeno[2,3-b]pyridine-5,4′-[1,3]oxazol]-2′-amine]
IC50 [1]: 68.3 nM
IC50 [2]: 288 nM

CC1(C#Cc2cc3c(cc2OC(F)(F)F)Oc2ccc(-c4cccnc4F)cc2[C@@]32COC(N)=N2)COC1 [Example 986, (4S)-7′-(2-fluoro-3-pyridinyl)-2′-((3-methyl-3-oxetanyl)ethynyl)-3′-(trifluoromethoxy)spiro[1,3-oxazole-4,9′-xanthen]-2-amine]
IC50 [1]: 193 nM
IC50 [2]: 2820 nM

CC1(C#Cc2cc3c(cc2OC(F)(F)F)Oc2ccc(-c4cccnc4F)cc2[C@]32COC(N)=N2)COC1 [Example 987, (4R)-7′-(2-fluoro-3-pyridinyl)-2′-((3-methyl-3-oxetanyl)ethynyl)-3′-(trifluoromethoxy)spiro[1,3-oxazole-4,9′-xanthen]-2-amine]
IC50 [1]: 4630 nM
IC50 [2]: ≥ 10000 nM

NC1=N[C@]2(CO1)c1cc(-c3cccnc3F)ccc1Oc1cc(OC(F)(F)F)c(Br)cc12 [Example 988, (4R)-2′-bromo-7′-(2-fluoro-3-pyridinyl)-3′-(trifluoromethoxy)spiro[1,3-oxazole-4,9′-xanthen]-2-amine]
IC50 [1]: 40000 nM
IC50 [2]: ≥ 10000 nM

NC1=N[C@@]2(CO1)c1cc(-c3cccnc3F)ccc1Oc1cc(OC(F)(F)F)c(Br)cc12 [Example 989, (4S)-2′-bromo-7′-(2-fluoro-3-pyridinyl)-3′-(trifluoromethoxy)spiro[1,3-oxazole-4,9′-xanthen]-2-amine]
IC50 [1]: 2380 nM
IC50 [2]: ≥ 10000 nM

NC1=N[C@]2(CO1)c1cc(-c3cccnc3F)ccc1Oc1cc(OC(F)(F)F)c(-c3ccnc(F)c3)cc12 [Example 990, (4R)-7′-(2-fluoro-3-pyridinyl)-2′-(2-fluoro-4-pyridinyl)-3′-(trifluoromethoxy)spiro[1,3-oxazole-4,9′-xanthen]-2-amine]
IC50 [1]: 8220 nM
IC50 [2]: 7220 nM

NC1=N[C@@]2(CO1)c1cc(-c3cccnc3F)ccc1Oc1cc(OC(F)(F)F)c(-c3ccnc(F)c3)cc12 [Example 991, (4S)-7′-(2-fluoro-3-pyridinyl)-2′-(2-fluoro-4-pyridinyl)-3′-(trifluoromethoxy)spiro[1,3-oxazole-4,9′-xanthen]-2-amine]
IC50 [1]: 193 nM
IC50 [2]: 1090 nM

NC1=N[C@]2(CS1)c1cc(-c3cccnc3F)ccc1Oc1cnc(-c3ccnc(F)c3)cc12 [Example 992, (5R)-7-(2-fluoro-3-pyridinyl)-3-(2-fluoro-4-pyridinyl)spiro[chromeno[2,3-c]pyridine-5,4′-[1,3]thiazol]-2′-amine]
IC50 [1]: 42.5 nM
IC50 [2]: 1830 nM

NC1=N[C@]2(CS1)c1cc(Br)ccc1Oc1cnc(Cl)cc12 [Example 993, (5R)-7-bromo-3-chlorospiro[chromeno[2,3-c]pyridine-5,4′-[1,3]thiazol]-2′-amine]
IC50 [1]: 11600 nM
IC50 [2]: ≥ 10000 nM

CC1(C#Cc2cc3c(cn2)Oc2ccc(-c4cccnc4F)cc2[C@@]32CSC(N)=N2)COC1 [Example 995, (5S)-7-(2-fluoro-3-pyridinyl)-3-((3-methyl-3-oxetanyl)ethynyl)spiro[chromeno[2,3-c]pyridine-5,4′-[1,3]thiazol]-2′-amine]
IC50 [1]: 0.8 nM
IC50 [2]: 15 nM

NC1=N[C@]2(CS1)c1cc(-c3cccnc3F)ccc1Oc1c2cc(C2=CCOCC2)nc1F [Example 998, (5R)-3-(3,6-dihydro-2H-pyran-4-yl)-1-fluoro-7-(2-fluoro-3-pyridinyl)spiro[chromeno[2,3-c]pyridine-5,4′-[1,3]thiazol]-2′-amine]
IC50 [1]: 13.5 nM
IC50 [2]: 218 nM

COc1cc2c(c(F)c1F)Oc1ccc(Br)cc1[C@]21COC(N)=N1 [Example 1002, (4R)-7′-bromo-3′,4′-difluoro-2′-methoxyspiro[1,3-oxazole-4,9′-xanthen]-2-amine]
IC50 [1]: 18100 nM
IC50 [2]: ≥ 10000 nM

COc1cc2c(c(F)c1F)Oc1ccc(Br)cc1[C@@]21COC(N)=N1 [Example 1003, (4S)-7′-bromo-3′,4′-difluoro-2′-methoxyspiro[1,3-oxazole-4,9′-xanthen]-2-amine]
IC50 [1]: 1090 nM
IC50 [2]: ≥ 10000 nM

COc1cc2c(c(F)c1F)Oc1ccc(-c3cccnc3F)cc1[C@]21COC(N)=N1 [Example 1004, (4R)-3′,4′-difluoro-7′-(2-fluoro-3-pyridinyl)-2′-methoxyspiro[1,3-oxazole-4,9′-xanthen]-2-amine]
IC50 [1]: 5560 nM
IC50 [2]: ≥ 10000 nM

COc1cc2c(c(F)c1F)Oc1ccc(-c3cccnc3F)cc1[C@@]21COC(N)=N1 [Example 1005, (4S)-3′,4′-difluoro-7′-(2-fluoro-3-pyridinyl)-2′-methoxyspiro[1,3-oxazole-4,9′-xanthen]-2-amine]
IC50 [1]: 5.8 nM
IC50 [2]: 1000 nM

NC1=N[C@@]2(CO1)c1cc(-c3cccnc3)ccc1Oc1c2cc(C2=CCOCC2)c(F)c1F [Example 1007, (4S)-2′-(3,6-dihydro-2H-pyran-4-yl)-3′,4′-difluoro-7′-(3-pyridinyl)spiro[1,3-oxazole-4,9′-xanthen]-2-amine]
IC50 [1]: 1.9 nM
IC50 [2]: 24 nM

CC(C)(C#N)COc1cc2c(c(F)c1F)Oc1ccc(-c3cccnc3)cc1[C@]21COC(N)=N1 [Example 1008, 3-(((4R)-2-amino-3′,4′-difluoro-7′-(3-pyridinyl)spiro[1,3-oxazole-4,9′-xanthen]-2′-yl)oxy)-2,2-dimethylpropanenitrile]
IC50 [1]: 17.9 nM
IC50 [2]: 775 nM

CC(C)(C#N)COc1cc2c(c(F)c1F)Oc1ccc(-c3cccnc3)cc1[C@@]21COC(N)=N1 [Example 1009, 3-(((4S)-2-amino-3′,4′-difluoro-7′-(3-pyridinyl)spiro[1,3-oxazole-4,9′-xanthen]-2′-yl)oxy)-2,2-dimethylpropanenitrile]
IC50 [1]: 1.7 nM
IC50 [2]: 32 nM

NC1=N[C@]2(CO1)c1cc(-c3cccnc3F)ccc1Oc1c2cc(C2=CCOCC2)c(F)c1F [Example 1010, (4R)-2′-(3,6-dihydro-2H-pyran-4-yl)-3′,4′-difluoro-7′-(2-fluoro-3-pyridinyl)spiro[1,3-oxazole-4,9′-xanthen]-2-amine]
IC50 [1]: 9.4 nM
IC50 [2]: 647 nM

NC1=N[C@@]2(CO1)c1cc(-c3cccnc3F)ccc1Oc1c2cc(C2=CCOCC2)c(F)c1F [Example 1011, (4S)-2′-(3,6-dihydro-2H-pyran-4-yl)-3′,4′-difluoro-7′-(2-fluoro-3-pyridinyl)spiro[1,3-oxazole-4,9′-xanthen]-2-amine]
IC50 [1]: 0.5 nM
IC50 [2]: 17 nM

NC1=N[C@]2(CO1)c1cc(-c3cccnc3)ccc1Oc1c2cc(-c2ccnc(F)c2)c(F)c1F [Example 1012, (4R)-3′,4′-difluoro-2′-(2-fluoro-4-pyridinyl)-7′-(3-pyridinyl)spiro[1,3-oxazole-4,9′-xanthen]-2-amine]
IC50 [1]: 59.7 nM
IC50 [2]: 1850 nM

NC1=N[C@@]2(CO1)c1cc(-c3cccnc3)ccc1Oc1c2cc(-c2ccnc(F)c2)c(F)c1F [Example 1013, (4S)-3′,4′-difluoro-2′-(2-fluoro-4-pyridinyl)-7′-(3-pyridinyl)spiro[1,3-oxazole-4,9′-xanthen]-2-amine]
IC50 [1]: 2.4 nM
IC50 [2]: 100 nM

C[C@@](C#Cc1cnc2c(c1)[C@]1(COC(N)=N1)c1cc(-c3cccnc3F)ccc1O2)(CO)CCl [Example 1015, (2R)-4-((5S)-2′-amino-7-(2-fluoro-3-pyridinyl)spiro[chromeno[2,3-b]pyridine-5,4′-[1,3]oxazol]-3-yl)-2-(chloromethyl)-2-methyl-3-butyn-1-ol]
IC50 [1]: 1 nM
IC50 [2]: 9 nM
